System: mice, abstinence syndrome induced by cocaine, diazepam, alcohol or nicotine
Assay: light box/dark box test: inhibition of the abstinence syndrome
Type: in vivo, mouse
Design: Time in box, dark (D) / Latent period L-D: unit not given here
Method: The light box/dark box test described by B. Costall et al. (J. Phar. Pharmacol., 1988, 40: 494-500) is used. The mouse is placed in the light zone of a box divided into two compartments, one brightly illuminated, the light box, and the other with little illumination, the dark box.
1) The number of times the mouse stands up on the hind paws in each compartment during a 5 minute period is counted (see Column 1 of Table V).
2) The activity in each compartment is given by counting the number of crossings through the squares which form the divisions of each compartment (see Column 2 of Table V).
3) The time passed in the dark box during the 5 minute counting period is determined (see Column 3 of Table 5).
4) The initial latent period is determined, that is to say the time which elapses after the animal is placed in the light box, at the start of the test, before it enters the dark box (see Column 4 of Table 5).
1) Dependency on a given treatment (diazepam, cocaine, alcohol or nicotine) employing daily administration over a period of 7 or 14 days.
Diazepam: 10 mg/kg i.p. twice per day over a period of 7 days.
Cocaine: 1 mg/kg i.p. over a period of 14 days.
Alcohol: Administered at 8% weight/volume in the drinking water over a period of 14 days. Nicotine: 0.1 mg/kg i.p. twice per day over a period of 7 days.
3) Other different groups receive, in addition to diazepam, cocaine, alcohol or nicotine, a concomitant treatment with products which are the subject of the present invention and, by way of comparison, with buspirone or ipsapirone.
The product described and the doses tested were: 4,5-dichloro-2-methyl-1-{4-[4-(2-pyrimidinyl)-1-piperazinyl]-butyl}-1H-imidazole citrate.
1 μg/kg p.o. twice per day.

[1] = 24 h after stopping alcohol (alone, or with the named product; Ex. 42 at 1 μg/kg p.o. twice per day)
[2] = 24 h after stopping cocaine (alone, or with the named product; Ex. 42 at 1 μg/kg p.o. twice per day)
[3] = 24 h after stopping diazepam (alone, or with the named product; Ex. 42 at 1 μg/kg p.o. twice per day)
[4] = 24 h after stopping nicotine (alone, or with the named product; Ex. 42 at 1 μg/kg p.o. twice per day)

## Cc1nc(Cl)c(Cl)n1CCCCN1CCN(c2ncccn2)CC1.O=C(O)CC(O)(CC(=O)O)C(=O)O [Example 42, 4,5-dichloro-2-methyl-1-{4-[4-(2-pyrimidinyl)-1-piperazinyl]-butyl}-1H-imidazole citrate]
[1]
  Activity within 5 min period, dark box (D): 23
  Activity within 5 min period, light box (L): 97
  Latent period L-D: 20
  Number of times standing erect within 5 min. period, dark box (D): 17
  Number of times standing erect within 5 min. period, light box (L): 86
  Time in box, dark (D): 26
[2]
  Activity within 5 min period, dark box (D): 23
  Activity within 5 min period, light box (L): 92
  Latent period L-D: 26
  Number of times standing erect within 5 min. period, dark box (D): 20
  Number of times standing erect within 5 min. period, light box (L): 86
  Time in box, dark (D): 30
[3]
  Activity within 5 min period, dark box (D): 19
  Activity within 5 min period, light box (L): 96
  Latent period L-D: 28
  Number of times standing erect within 5 min. period, dark box (D): 17
  Number of times standing erect within 5 min. period, light box (L): 85
  Time in box, dark (D): 36
[4]
  Activity within 5 min period, dark box (D): 20
  Activity within 5 min period, light box (L): 102
  Latent period L-D: 23
  Number of times standing erect within 5 min. period, dark box (D): 18
  Number of times standing erect within 5 min. period, light box (L): 90
  Time in box, dark (D): 29
diazepam, cocaine, alcohol or nicotine stopped, 1 μg/kg p.o. twice per day
  anxiolytic response when the administration is stopped: maintains a significant anxiolytic response
Induced by diazepam, cocaine, alcohol and nicotine, 1 μg/kg p.o. twice per day
  inhibition of the abstinence syndrome: inhibits the abstinence syndrome
